Assay results taken from ChEMBL document CHEMBL1157994, “Three new metabolites from marine-derived fungi of the genera coniothyrium and microsphaeropsis” (J Nat Prod, 1999).
The source made the active and inactive calls. No cut-off for these calls is given here.

How the values were obtained:
Type in all cases: functional, organism-based
[1] = test system: Aspergillus pseudoglaucus; experiment: Antifungal activity against Eurotium repens at 50 ug by agar diffusion test
[2] = test system: Microbotryum violaceum; experiment: Antifungal activity against Ustilago violacea at 50 ug by agar diffusion test
[3] = test system: Priestia megaterium; experiment: […] activity against Bacillus megaterium at 50 ug by agar diffusion test
[4] = test system: Mycotypha microspora; experiment: Antifungal activity against Mycotypha microspora at 50 ug by agar diffusion test

Compound | Activity [1] | Activity [2] | Activity [3] | Activity [4]
CO[C@]12C=C3C=CC(=O)[C@@H](C)[C@@]3(C)C[C@@]1(O)[C@H](C)CO2 | Active | Active |  | 
C[C@@H]1Cc2cccc(O)c2C(=O)O1 | Active |  |  | 
COc1cc2c(c(O)c1Cl)C(=O)O[C@H](C)C2 | Active |  |  | 
OCc1ccco1 |  |  | Active | 
COc1cc(O)c2c(c1)C[C@@H](C)OC2=O | Active |  |  | 
C[C@H]1OC(=O)c2c(O)cccc2[C@H]1O | Active | Active |  | 
O=C1CCC(O)c2cccc(O)c21 (stereo not drawn) | Active | Active |  | 
C[C@H]1OC(=O)c2c(O)cccc2[C@@H]1O |  | Active |  | 
CC(=O)[C@@H](C)c1cc(O)cc(O)c1 |  | Active |  | Active
